Measurements: patent US20120015090A1, “READILY WATER-SOLUBLE MYRICITRIN COMPOSITION” (SAN-EI GEN F.F.I., INC., priority 2009, published 2012)

Assays:
[1] = Flavor deterioration suppressing effect, sensory evaluation of drinks after light or heat stress test (Experiment Example 6); design: key: 1 = no-addition blank drink, 5 = drink before the test; settings: added 0.1% (γ-CD 0.01%)
Protocol: Various drinks mixed with the MY or MY composition were subjected to a light or heat stress test (accelerated test) to evaluate the flavor deterioration suppressing effect of the MY or MY composition.
Specifically, eight drinks were prepared in the formulations 1 to 8 below. Then, a 3% MY preparation (product name: SanMelin**Y-AF*), a MY/γ-CD inclusion product preparation (MY: γ-CD=1:1.2) (containing 3% MY) prepared in Example 2, a MY/γ-CD inclusion product preparation (MY: γ-CD=1:1.2) (containing 6% MY) prepared in Example 3, and γ-CD (Wacker Chemical) were added thereto in the final concentrations shown in FIG. 10.
The drinks prepared as above were tested under the severity conditions presented in Table 10, and changes in drink flavor after the test were examined by six panelists in a sensory evaluation. Evaluations were made according to the following criteria on a scale of 1 (a drink with no addition (blank)) to 5 (each drink before the test).
Table 10 presents mean values of the scored points evaluated by the six panelists.

[2] = Fading suppressing effect, UV Fade Meter irradiation (Experiment Example 5); settings: pH 3.1, final MY 0.003%, γ-CD 0.01%, EMIQ […]
Protocol: (§1) Specifically, a colorant-containing acidic drink of the formulation below was prepared. Then, a 3% MY preparation (product name: SanMelin**Y-AF*) and a MY/γ-CD inclusion product (MY: γ-CD=1:1.2) (containing 3% myricitrin) prepared in Example 2 were added to the drink to a final MY concentration of 0.003% or to a final γ-CD (Wacker Chemical) concentration of 0.01%.
(§2) The drinks were irradiated with a UV Fade Meter (UV Long-Life Fade Meter FAL-3, Suga Test Instruments Co., Ltd.) or a fluorescent light (BIOTRON LH 300, NK System) for the durations presented in Tables 6 and 7. Absorbance was measured before and after the irradiation, and the percentage of remaining color (%) after the irradiation was calculated. Further, as a control test, a colorant-containing acidic drink was irradiated with the UV Fade Meter or fluorescent light as above without adding anything (no addition), and the percentage of remaining color (%) after the irradiation was calculated.

[3] = Fading suppressing effect, fluorescent light irradiation (Experiment Example 5); settings: pH 3.1, final MY 0.003%, γ-CD 0.01%, EMIQ […]
Protocol: as §1, §2

SMILES: OC[C@H]1O[C@@H]2O[C@H]3[C@H](O)[C@@H](O)[C@@H](O[C@H]4[C@H](O)[C@@H](O)[C@@H](O[C@H]5[C@H](O)[C@@H](O)[C@@H](O[C@H]6[C@H](O)[C@@H](O)[C@@H](O[C@H]7[C@H](O)[C@@H](O)[C@@H](O[C@H]8[C@H](O)[C@@H](O)[C@@H](O[C@H]9[C@H](O)[C@@H](O)[C@@H](O[C@H]1[C@H](O)[C@H]2O)O[C@@H]9CO)O[C@@H]8CO)O[C@@H]7CO)O[C@@H]6CO)O[C@@H]5CO)O[C@@H]4CO)O[C@@H]3CO [γ-CD, γ-cyclodextrin]
- flavor change score, mean of six panelists ([1]; Coffee, Fluorescent light (20000 lx, 16 hr, 15° C.), scale 1 to 5): 2.4
- flavor change score, mean of six panelists ([1]; Grape drink, Fluorescent light (20000 lx, 15 hr, 15° C.), scale 1 (blank) to 5 (before test)): 1.6
- flavor change score, mean of six panelists ([1]; Grapefruit drink (20% fruit juice), Fade Meter ([…]), scale 1 to 5): 2.2
- flavor change score, mean of six panelists ([1]; Grapefruit drink (20% fruit juice), Fluorescent light (20000 lx, 21 hr, 10° C.), scale 1 to 5): 2.0
- flavor change score, mean of six panelists ([1]; Grapefruit drink (20% fruit juice), Heat (55° C., 64 hr), scale 1 to 5): 2.8
- flavor change score, mean of six panelists ([1]; Grapefruit drink (100% fruit juice), Fluorescent light (20000 lx, 18 hr, 15° C.), scale 1 to 5): 2.1
- flavor change score, mean of six panelists ([1]; Lemon drink, Fluorescent light (20000 lx, 21 hr, 10° C.), scale 1 to 5): 2.2
- flavor change score, mean of six panelists ([1]; Milk tea, Fluorescent light (20000 lx, 18 hr, 15° C.), scale 1 to 5): 2.3
- flavor change score, mean of six panelists ([1]; Orange drink (20% fruit juice), Fluorescent light (20000 lx, 18 hr, 15° C.), scale 1 to 5): 2.3
- flavor change score, mean of six panelists ([1]; Sour milk beverage, Fluorescent light (20000 lx, 18 hr, 15° C.), scale 1 to 5): 2.7
- percentage of remaining color (%) ([2]; Cochineal colorant 0.05%, UV Fade Meter 6 H): 64.3%
- percentage of remaining color (%) ([2]; Elderberry colorant 0.05%, UV Fade Meter 2 H): 68.5%
- percentage of remaining color (%) ([2]; Gardenia blue colorant 0.05%, UV Fade Meter 19 H): 68.6%
- percentage of remaining color (%) ([2]; Grape juice colorant 0.1%, UV Fade Meter 2 H): 75.0%
- percentage of remaining color (%) ([2]; Monascus colorant, UV Fade Meter 3 H): 30.2%
- percentage of remaining color (%) ([2]; Paprika colorant 0.05%, UV Fade Meter 3 H): 50.3%
- percentage of remaining color (%) ([2]; Purple corn colorant 0.05%, UV Fade Meter 4 H): 72.8%
- percentage of remaining color (%) ([2]; Purple sweet potato colorant 0.05%, UV Fade Meter 7 H): 46.5%
- percentage of remaining color (%) ([2]; Red cabbage colorant 0.05%, UV Fade Meter 10 H): 53.9%
- percentage of remaining color (%) ([2]; Safflower yellow colorant 0.05%, UV Fade Meter 4 H): 48.6%
- percentage of remaining color (%) ([2]; β-carotene 0.05%, UV Fade Meter 17 H): 68.5%
- percentage of remaining color (%) ([3]; Cochineal colorant 0.05%, fluorescent light 1 D): 64.2%
- percentage of remaining color (%) ([3]; Elderberry colorant 0.05%, fluorescent light 6 D): 63.8%
- percentage of remaining color (%) ([3]; Gardenia blue colorant 0.05%, fluorescent light (time not given)): 58.4%
- percentage of remaining color (%) ([3]; Monascus colorant, fluorescent light 4 D): 38.7%
- percentage of remaining color (%) ([3]; Paprika colorant 0.05%, fluorescent light 6 D): 71.2%
- percentage of remaining color (%) ([3]; Purple corn colorant 0.05%, fluorescent light 2 D): 65.5%
- percentage of remaining color (%) ([3]; Purple sweet potato colorant 0.05%, fluorescent light 6 D): 80.4%
- percentage of remaining color (%) ([3]; Red cabbage colorant 0.05%, fluorescent light 4 D): 62.8%
- percentage of remaining color (%) ([3]; Safflower yellow colorant 0.05%, fluorescent light 6 D): 68.1%
- percentage of remaining color (%) ([3]; β-carotene 0.05%, fluorescent light 1 D): 67.4%
